According to ChEMBL document CHEMBL1201862, “PubChem BioAssay data set” (2004):
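In this assay, cells in 96-well plates receive the compound at five concentrations for 48 hours. Endpoints are linearly interpolated between the surrounding concentrations. GI50 is the concentration that inhibits growth by half.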 Active and inactive are the calls of the source. Cut-off read from the data, not from the text of the source: active = GI50 up to about 1.1 µM and inactive = higher.

How the values were obtained:
Assay in all cases: NCI anticancer screen, dose series, 48 h
786-0 = tested on: 786-0
A498 = tested on: A498
CAKI-1 = tested on: CAKI-1
CCRF-CEM = tested on: CCRF-CEM
COLO 205 = tested on: COLO 205
DU-145 = tested on: DU-145
EKVX = tested on: EKVX
HCC 2998 = tested on: HCC 2998
HOP-62 = tested on: HOP-62
IGROV-1 = tested on: IGROV-1
LOX IMVI = tested on: LOX IMVI
MDA-MB-435 = tested on: MDA-MB-435
NCI-H23 = tested on: NCI-H23
PC-3 = tested on: PC-3
RPMI-8226 = tested on: RPMI-8226
SK-MEL-28 = tested on: SK-MEL-28
SN12C = tested on: SN12C
T47D = tested on: T47D
UACC-257 = tested on: UACC-257
UO-31 = tested on: UO-31

Structure (SMILES) | GI50 (786-0) | GI50 (A498) | GI50 (CAKI-1) | GI50 (CCRF-CEM) | GI50 (COLO 205) | GI50 (DU-145) | GI50 (EKVX) | GI50 (HCC 2998) | GI50 (HOP-62) | GI50 (IGROV-1) | GI50 (LOX IMVI) | GI50 (MDA-MB-435) | GI50 (NCI-H23) | GI50 (PC-3) | GI50 (RPMI-8226) | GI50 (SK-MEL-28) | GI50 (SN12C) | GI50 (T47D) | GI50 (UACC-257) | GI50 (UO-31)
O=C1C=Cc2c(Cl)sc(Cl)c21 | 0.94 µM (active) | 4.06 µM (inactive) | 2.15 µM (inactive) | 0.234 µM (active) | 1.45 µM (inactive) | 2.32 µM (inactive) | 3.27 µM (inactive) | 5.38 µM (inactive) | 1.74 µM (inactive) | 1.63 µM (inactive) | 0.372 µM (active) | 2.02 µM (inactive) | 2.22 µM (inactive) | 1.88 µM (inactive) | 0.675 µM (active) | 1.73 µM (inactive) | 2.18 µM (inactive) | 1.81 µM (inactive) | 2.03 µM (inactive) | 1.6 µM (inactive)
N#C/C(C(=O)Nc1ccccc1)=C(/N)N1CCCC1 | > 100 µM (inactive) | > 100 µM (inactive) | > 100 µM (inactive) | > 100 µM (inactive) | > 100 µM (inactive) | > 100 µM (inactive) | 72.3 µM (inactive) | > 100 µM (inactive) | > 100 µM (inactive) | > 100 µM (inactive) | > 100 µM (inactive) | > 100 µM (inactive) | > 100 µM (inactive) | > 100 µM (inactive) | > 100 µM (inactive) | > 100 µM (inactive) | > 100 µM (inactive) | 35.2 µM (inactive) | > 100 µM (inactive) | 97.9 µM (inactive)
Nc1ccc(-c2nc3ccccc3s2)cc1CO | > 100 µM (inactive) | < 0.01 µM (active) | 2.9 µM (inactive) | > 51.2 µM (inactive) | > 100 µM (inactive) | > 94.8 µM (inactive) | 7.46 µM (inactive) | > 100 µM (inactive) | 31.5 µM (inactive) | > 68.5 µM (inactive) | 84.3 µM (inactive) | > 87.5 µM (inactive) | 60.5 µM (inactive) | 66.8 µM (inactive) | 49.1 µM (inactive) | > 100 µM (inactive) | 45.8 µM (inactive) | 33.2 µM (inactive) | > 87.7 µM (inactive) | 10.5 µM (inactive)
Cc1nc2c3c(ncn2n1)Oc1c(c(-c2ccccc2)nn1-c1ccccc1)C3c1ccc(Cl)cc1 (configuration not stated) | 39 µM (inactive) | > 100 µM (inactive) | > 100 µM (inactive) | > 10 µM (inactive) | > 100 µM (inactive) | > 100 µM (inactive) | > 100 µM (inactive) | > 100 µM (inactive) | 75.7 µM (inactive) | > 100 µM (inactive) | > 100 µM (inactive) | > 100 µM (inactive) | > 100 µM (inactive) | > 100 µM (inactive) | > 100 µM (inactive) | > 100 µM (inactive) | > 100 µM (inactive) | > 100 µM (inactive) | > 100 µM (inactive) | > 100 µM (inactive)
CC(=O)C1=C(c2ccccc2)N(C2OC(CO)C(O)C(O)C2O)C(S)=C(C#N)C1c1ccc(Cl)cc1 (configuration not stated) | 27 µM (inactive) | 38.6 µM (inactive) | 29 µM (inactive) | 34.8 µM (inactive) | 24.7 µM (inactive) | 44.8 µM (inactive) | – | 17.7 µM (inactive) | 30.2 µM (inactive) | 39.7 µM (inactive) | 18.5 µM (inactive) | 23.6 µM (inactive) | 36 µM (inactive) | 22.1 µM (inactive) | 29.9 µM (inactive) | 20.7 µM (inactive) | 38.5 µM (inactive) | 10.3 µM (inactive) | 25.4 µM (inactive) | 28.8 µM (inactive)
CC1(C)C(c2ccccc2)=[N+]([O-])C(C)(C)N1O | > 10 µM (inactive) | > 10 µM (inactive) | > 10 µM (inactive) | > 10 µM (inactive) | > 10 µM (inactive) | > 10 µM (inactive) | > 10 µM (inactive) | > 10 µM (inactive) | > 10 µM (inactive) | > 10 µM (inactive) | > 10 µM (inactive) | > 10 µM (inactive) | > 10 µM (inactive) | > 10 µM (inactive) | > 10 µM (inactive) | > 10 µM (inactive) | > 10 µM (inactive) | > 10 µM (inactive) | > 10 µM (inactive) | –
Cc1cc2nc(-c3cc(C(C)(C)C)c(O)c(C(C)(C)C)c3)[nH]c2cc1C | 0.867 µM (active) | > 100 µM (inactive) | – | 1.39 µM (inactive) | 2.9 µM (inactive) | > 100 µM (inactive) | > 39.1 µM (inactive) | 5.81 µM (inactive) | > 100 µM (inactive) | 5.08 µM (inactive) | 4.16 µM (inactive) | > 23.3 µM (inactive) | > 34 µM (inactive) | 7.19 µM (inactive) | 12.8 µM (inactive) | > 100 µM (inactive) | 9.62 µM (inactive) | > 100 µM (inactive) | > 52.2 µM (inactive) | 6.17 µM (inactive)
CN(CCCNC(=O)c1nn(-c2ccc(Cl)cc2Cl)c2c1ccc1ccccc12)CCCNC(=O)c1nn(-c2ccc(Cl)cc2Cl)c2c1ccc1ccccc12 | 1.54 µM (inactive) | 1.43 µM (inactive) | 1.58 µM (inactive) | 1.92 µM (inactive) | 1.91 µM (inactive) | 1.77 µM (inactive) | 1.69 µM (inactive) | 1.53 µM (inactive) | 1.77 µM (inactive) | 1.74 µM (inactive) | 1.69 µM (inactive) | 1.71 µM (inactive) | 1.81 µM (inactive) | 1.68 µM (inactive) | 1.87 µM (inactive) | 1.66 µM (inactive) | 1.65 µM (inactive) | 1.81 µM (inactive) | 1.78 µM (inactive) | –
COc1c(C)c(OCC=C(C)C)cc(CO)c1CO | 7.23 µM (inactive) | 44.1 µM (inactive) | 46.8 µM (inactive) | 44.9 µM (inactive) | 58.6 µM (inactive) | 92 µM (inactive) | 77.8 µM (inactive) | 82.6 µM (inactive) | 56.5 µM (inactive) | 38.2 µM (inactive) | 28.9 µM (inactive) | 55.3 µM (inactive) | 38.7 µM (inactive) | 36 µM (inactive) | 20.4 µM (inactive) | – | 88.3 µM (inactive) | 38.1 µM (inactive) | 81.8 µM (inactive) | –
O=C1/C(=C/c2ccccc2O)N=C(c2ccccc2)N1C1Nc2cc3c(cc2S1)NC(N1C(=O)/C(=C/c2ccccc2O)N=C1c1ccccc1)S3 (configuration not stated) | 25.4 µM (inactive) | 20 µM (inactive) | 56.5 µM (inactive) | 39.7 µM (inactive) | – | 42.8 µM (inactive) | 46.7 µM (inactive) | 33.6 µM (inactive) | 31.2 µM (inactive) | 14.2 µM (inactive) | 42.2 µM (inactive) | 14.8 µM (inactive) | 31.9 µM (inactive) | 34.4 µM (inactive) | 26.1 µM (inactive) | 65.3 µM (inactive) | – | 8.05 µM (inactive) | 66.8 µM (inactive) | 23 µM (inactive)
